Experimental data from patent US9938262B2, “Benzamides” (Merck Patent GmbH, priority 2011, dated 2018).
Like-named read-outs stand apart in the source and are kept apart here.

Legend:
[1] = target: T1, follicle-stimulating hormone (FSH) receptor (Rattus norvegicus, UniProt P20395); experiment: Rat granulosa EC50 FSH (Assay B); type: cell-based; settings: rat granulosa cells, Table 1
T1 construct: endogenous in cells; host or cells: rat granulosa cells
T1 sequence (P20395 18-692): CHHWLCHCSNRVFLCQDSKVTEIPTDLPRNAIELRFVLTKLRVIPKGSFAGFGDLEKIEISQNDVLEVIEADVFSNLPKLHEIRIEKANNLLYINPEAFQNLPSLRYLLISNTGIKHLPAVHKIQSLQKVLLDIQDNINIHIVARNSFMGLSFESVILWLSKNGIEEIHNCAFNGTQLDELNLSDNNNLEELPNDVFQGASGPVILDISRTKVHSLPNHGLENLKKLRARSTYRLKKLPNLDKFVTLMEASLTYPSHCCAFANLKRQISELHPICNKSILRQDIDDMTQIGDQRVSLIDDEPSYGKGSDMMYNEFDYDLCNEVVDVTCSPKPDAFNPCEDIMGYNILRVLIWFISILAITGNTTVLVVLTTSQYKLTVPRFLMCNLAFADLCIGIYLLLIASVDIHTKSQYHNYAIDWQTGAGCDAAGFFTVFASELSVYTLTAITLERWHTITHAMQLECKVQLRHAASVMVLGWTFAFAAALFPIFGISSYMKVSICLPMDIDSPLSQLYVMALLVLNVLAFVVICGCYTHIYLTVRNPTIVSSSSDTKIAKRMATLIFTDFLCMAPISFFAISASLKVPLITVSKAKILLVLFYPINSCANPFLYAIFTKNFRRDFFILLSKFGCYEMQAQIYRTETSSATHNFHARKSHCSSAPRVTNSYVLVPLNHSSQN
Experimental: Example 11: Rat Granulosa EC50 FSH (Assay B)
The assay was performed pursuant to the teaching of Yanofsky et al. (2006) Allosteric activation of the follicle-stimulating hormone (FSH) receptor by selective, nonpeptide agonists. JBC 281(19): 13226-13233, which is incorporated by reference in the disclosure of the invention.

FSHR = target: T2, FSHR (Homo sapiens, UniProt P23945); experiment: EC50 of cyclic AMP production in CHO FSHR cells + EC20 FSH (Assay A); type: cell-based; settings: CHO FSHR cells + EC20 FSH, read-out: Assay A EC50 of cyclic AMP production
T2 construct: expressed in transfected cells; host or cells: CHO (Cho-FSHR-LUC-1-1-43)
T2 sequence (P23945 18-695): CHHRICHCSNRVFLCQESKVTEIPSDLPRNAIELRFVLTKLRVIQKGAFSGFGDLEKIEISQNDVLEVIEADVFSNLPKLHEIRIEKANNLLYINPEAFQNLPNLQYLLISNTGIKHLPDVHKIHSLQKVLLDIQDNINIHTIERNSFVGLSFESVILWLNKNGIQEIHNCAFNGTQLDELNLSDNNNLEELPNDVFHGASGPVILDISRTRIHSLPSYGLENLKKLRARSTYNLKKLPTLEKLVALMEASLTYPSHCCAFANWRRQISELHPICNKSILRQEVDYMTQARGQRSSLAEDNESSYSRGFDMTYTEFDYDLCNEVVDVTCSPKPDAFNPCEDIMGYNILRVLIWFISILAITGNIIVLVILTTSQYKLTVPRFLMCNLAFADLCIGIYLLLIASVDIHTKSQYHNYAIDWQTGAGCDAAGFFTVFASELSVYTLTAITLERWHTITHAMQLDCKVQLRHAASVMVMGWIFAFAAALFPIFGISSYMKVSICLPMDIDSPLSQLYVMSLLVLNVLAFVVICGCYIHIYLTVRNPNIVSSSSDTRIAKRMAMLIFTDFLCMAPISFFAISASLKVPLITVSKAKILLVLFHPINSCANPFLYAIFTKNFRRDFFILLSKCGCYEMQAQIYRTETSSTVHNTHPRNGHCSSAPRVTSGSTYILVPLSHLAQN
T2 sequence (P01215 25-116 partner): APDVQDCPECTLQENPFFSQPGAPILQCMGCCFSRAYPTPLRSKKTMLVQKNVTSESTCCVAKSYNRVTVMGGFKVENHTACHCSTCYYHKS
T2 sequence (P01225 19-129 partner): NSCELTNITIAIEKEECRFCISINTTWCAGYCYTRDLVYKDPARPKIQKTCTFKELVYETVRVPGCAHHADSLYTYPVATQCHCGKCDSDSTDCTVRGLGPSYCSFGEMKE
Outline: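 cAMP HTRF ratio (665/620 nm) read after 1 h, 37 °C exposure of CHO-FSHR cells to compound in presence of EC20 FSH ([…]) and IBMX 200 μM. Responses given relative to FSH standard maximum; EC50 derived.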

EC50 (FSHR; Table 2) [nM] | further results | Compound
 | EC50 [1]: 1000 to 10000 nM; EC50 (FSHR; Table 1): < 100 nM | Cc1ccccc1N1CCN(c2ccc(C(=O)NCCCN3CCCC3=O)cc2NC(=O)c2ccco2)CC1 [Compound 2]
 | Assay B % at 5 μM [1]: 10%; EC50 (FSHR; Table 1): 100 to 1000 nM | O=C(NCC1CCCO1)c1ccc(N2CCN(Cc3ccccc3)CC2)c(NC(=O)c2ccccc2Cl)c1 (centres unmarked) [Compound 3]
 | EC50 [1]: 1000 to 10000 nM | Cc1ccccc1N1CCN(c2ccc(C(=O)NCCCN3CCCC3=O)cc2NC(=O)c2occc2C)CC1 [Compound 5]
 | EC50 [1]: 100 to 1000 nM | Cc1ccc(C(=O)Nc2cc(C(=O)NCCCN3CCCC3=O)ccc2N2CCN(c3ccccc3C)CC2)o1 [Compound 6]
 | EC50 [1]: 100 to 1000 nM; EC50 (FSHR; Table 1): 100 to 1000 nM | Cc1ccccc1N1CCN(c2ccc(C(=O)NCCc3c[nH]cn3)cc2NC(=O)c2ccco2)CC1 [Compound 15]
 | EC50 [1]: 1000 to 10000 nM | Cc1ccccc1N1CCN(c2ccc(C(=O)NCCCN3CCCC3=O)cc2NC(=O)c2ccccc2)CC1 [Compound 27]
 | EC50 [1]: 100 to 1000 nM; EC50 (FSHR; Table 1): 100 to 1000 nM | Cc1ccccc1N1CCN(c2ccc(C(=O)NCCCN3CCCC3=O)cc2NC(=O)c2ccc(F)cc2)CC1 [Compound 31]
 | EC50 [1]: 1000 to 10000 nM; EC50 (FSHR; Table 1): 100 to 1000 nM | Cc1ccc(C(=O)Nc2cc(C(=O)NCCCN3CCCC3=O)ccc2N2CCN(c3ccccc3C)CC2)cc1 [Compound 35]
 | EC50 [1]: 100 to 1000 nM | Cc1ccccc1N1CCN(c2ccc(C(=O)NCCCN3CCCC3=O)cc2NC(=O)c2ccccn2)CC1 [Compound 36]
 | EC50 [1]: 100 to 1000 nM; EC50 (FSHR; Table 1): 100 to 1000 nM | Cc1ccccc1N1CCN(c2ccc(C(=O)NCCCN3CCCC3=O)cc2NS(=O)(=O)c2cccc3cccnc23)CC1 [Compound 45]
 | Assay B % at 5 μM [1]: 27%; EC50 (FSHR; Table 1): 100 to 1000 nM | Cc1ccccc1N1CCN(c2ccc(C(=O)NC3CCN(S(C)(=O)=O)CC3)cc2NC(=O)c2ccco2)CC1 [Compound 58, Furan-2-carboxylic acid [5-(1-methanesulfonyl-piperidin-4-ylcarbamoyl)-2-(4-o-tolyl-piperazin-1-yl)-phenyl]-amide]
 | EC50 [1]: > 10000 nM | Cc1nc(C(=O)Nc2cc(C(=O)NCCCN3CCCC3=O)ccc2N2CCN(c3ccccc3C)CC2)co1 [Compound 75]
 | EC50 [1]: 100 to 1000 nM | Cc1ccccc1N1CCN(c2ccc(C(=O)NCCCN3CCCC3=O)cc2NC(=O)C2CC2)CC1 [Compound 84]
 | EC50 [1]: 100 to 1000 nM | Cc1ccccc1N1CCN(c2ccc(C(=O)NCCCC3CCOC3)cc2NC(=O)c2ccco2)CC1 (centres unmarked) [Compound 158]
> 10000 |  | Cc1ccccc1N1CCN(c2ccc(C(=O)NCc3cccc(CN(C)C)c3)cc2NS(C)(=O)=O)CC1 [Compound 563]
100 to 1000 |  | Cc1ccccc1N1CCN(c2ccc(C(=O)NCc3ccc(F)c(CN(C)C)c3)cc2NC(=O)c2coc(C3CC3)n2)CC1 [Compound 564]
100 to 1000 |  | Cc1ccccc1N1CCN(c2ccc(C(=O)NC[C@H](O)CO)cc2NC(=O)c2coc(C3CC3)n2)CC1 [Compound 565]
100 to 1000 |  | Cc1ccccc1N1CCN(c2ccc(C(=O)NC[C@H](O)c3ccccc3)cc2NC(=O)c2coc(C3CC3)n2)CC1 [Compound 566]
100 to 1000 |  | Cc1ccccc1N1CCN(c2ccc(C(=O)NC[C@@H](O)CO)cc2NC(=O)c2coc(C3CC3)n2)CC1 [Compound 567]
100 to 1000 |  | Cc1ccccc1N1CCN(c2ccc(C(=O)NC[C@@H](N)c3ccccc3)cc2NC(=O)c2coc(C3CC3)n2)CC1 [Compound 568]
1000 to 10000 |  | Cc1ccc2[nH]cc(CCNC(=O)c3ccc(N4CCN(c5ccccc5C)CC4)c(NC(=O)c4coc(C5CC5)n4)c3)c2c1 [Compound 569]
100 to 1000 |  | Cc1ccccc1N1CCN(c2ccc(C(=O)NCCCc3cccc(O)c3)cc2NC(=O)c2coc(C3CC3)n2)CC1 [Compound 570]
100 to 1000 |  | Cc1ccccc1N1CCN(c2ccc(C(=O)N3CCC4(CC3)COC4)cc2NC(=O)c2coc(C3CC3)n2)CC1 [Compound 571]
< 100 |  | Cc1ccccc1N1CCN(c2ccc(C(=O)NCCCN3CCCC3=O)cc2NCc2ccco2)CC1 [Compound 572]
1000 to 10000 |  | Cc1ccc(CNc2cc(C(=O)NCc3cccc(CN(C)C)c3)ccc2N2CCN(c3ccccc3C)CC2)o1 [Compound 573]
100 to 1000 |  | Cc1ccccc1N1CCN(c2ccc(C(=O)NCc3cccc(CO)c3)cc2NC(=O)c2coc(C3CC3)n2)CC1 [Compound 574]
< 100 |  | Cc1ccccc1N1CCN(c2ccc(C(=O)N[C@H]3CCC[C@@H](O)C3)cc2NC(=O)c2coc(C3CC3)n2)CC1 [Compound 575]
< 100 |  | Cc1ccccc1N1CCN(c2ccc(C(=O)N[C@H]3CCC[C@H](O)C3)cc2NC(=O)c2coc(C3CC3)n2)CC1 [Compound 576]

EC50 (FSHR; Table 2) [nM] | further results | Compound
< 100 |  | Cc1ccccc1N1CCN(c2ccc(C(=O)N[C@H]3CCC[C@H](O)[C@@H]3O)cc2NC(=O)c2coc(C3CC3)n2)CC1 [Compound 578]
100 to 1000 |  | CCOc1cc(CCCNC(=O)c2ccc(N3CCN(c4ccccc4C)CC3)c(NC(=O)c3ccco3)c2)ccc1OC [Compound 579]
100 to 1000 |  | CCOc1cc(CCCNC(=O)c2ccc(N3CCN(c4ccccc4C)CC3)c(NC(=O)c3coc(C4CC4)n3)c2)ccc1OC [Compound 580]
100 to 1000 |  | CCOc1cc(CCCNC(=O)c2ccc(N3CCN(c4ccccc4C)CC3)c(NC(=O)c3ccc(C)o3)c2)ccc1OC [Compound 581]
100 to 1000 |  | Cc1ccccc1N1CCN(c2ccc(C(=O)NC[C@@H](O)c3ccccc3)cc2NC(=O)c2ccco2)CC1 [Compound 582]
1000 to 10000 |  | Cc1ccc(C(=O)Nc2cc(C(=O)NC[C@@H](O)c3ccccc3)ccc2N2CCN(c3ccccc3C)CC2)o1 [Compound 583]
1000 to 10000 |  | Cc1ccc(C(=O)Nc2cc(C(=O)NC[C@H](O)c3ccccc3)ccc2N2CCN(c3ccccc3C)CC2)o1 [Compound 584]
< 100 |  | Cc1ccccc1N1CCN(c2ccc(C(=O)NC[C@H](O)c3ccccc3)cc2NC(=O)c2ccco2)CC1 [Compound 585]
1000 to 10000 |  | Cc1ccccc1N1CCN(c2ccc(C(=O)N3CCC4(COC4)C3)cc2NC(=O)c2ccco2)CC1 [Compound 587]
100 to 1000 |  | Cc1ccc(C(=O)Nc2cc(C(=O)NCCCc3cccc(O)c3)ccc2N2CCN(c3ccccc3C)CC2)o1 [Compound 588]
100 to 1000 |  | Cc1ccccc1N1CCN(c2ccc(C(=O)NCCCc3cccc(O)c3)cc2NC(=O)c2ccco2)CC1 [Compound 589]
100 to 1000 |  | Cc1ccccc1N1CCN(c2ccc(C(=O)N3CC4(COC4)C3)cc2NC(=O)c2coc(C3CC3)n2)CC1 [Compound 590]
> 10000 |  | Cc1ccc(C(=O)Nc2cc(C(=O)N3CC4(COC4)C3)ccc2N2CCN(c3ccccc3C)CC2)o1 [Compound 591]
1000 to 10000 |  | Cc1ccccc1N1CCN(c2ccc(C(=O)N3CC4(COC4)C3)cc2NC(=O)c2ccco2)CC1 [Compound 592]
1000 to 10000 |  | Cc1ccc(C(=O)Nc2cc(C(=O)N3CCC4(COC4)C3)ccc2N2CCN(c3ccccc3C)CC2)o1 [Compound 593]
1000 to 10000 |  | Cc1ccccc1N1CCN(c2ccc(C(=O)N3CCC4(COC4)C3)cc2NC(=O)c2coc(C3CC3)n2)CC1 [Compound 594]
1000 to 10000 |  | N#Cc1nccnc1N1CCN(c2ccc(C(=O)NCCCN3CCCC3=O)cc2NC(=O)c2coc(C3CC3)n2)CC1 [Compound 595]
1000 to 10000 |  | O=C(NCCCN1CCCC1=O)c1ccc(N2CCN(c3cccnn3)CC2)c(NC(=O)c2coc(C3CC3)n2)c1 [Compound 596]
> 10000 |  | Cc1cc(N2CCN(c3ccc(C(=O)NCCCN4CCCC4=O)cc3NC(=O)c3coc(C4CC4)n3)CC2)ncn1 [Compound 597]
1000 to 10000 |  | Cc1nnc(N2CCN(c3ccc(C(=O)NCCCN4CCCC4=O)cc3NC(=O)c3coc(C4CC4)n3)CC2)s1 [Compound 598]
> 10000 |  | COc1cncc(N2CCN(c3ccc(C(=O)NCCCN4CCCC4=O)cc3NC(=O)c3coc(C4CC4)n3)CC2)c1 [Compound 599]
100 to 1000 |  | CN(C)c1ccc(N2CCN(c3ccc(C(=O)NCCCN4CCCC4=O)cc3NC(=O)c3coc(C4CC4)n3)CC2)nn1 [Compound 602]
1000 to 10000 |  | Cc1ccccc1N1CCN(c2ccc(C(=O)NCCCN3CCCC3=O)cc2NC(=O)c2coc(C3CC3)n2)CC1=O [Compound 605]
100 to 1000 |  | Cc1ccccc1N1CCN(c2ccc(C(=O)NCCNC3CS(=O)(=O)C[C@H]3O)cc2NC(=O)c2ccco2)CC1 (some centres unmarked) [Compound 606]
100 to 1000 |  | Cc1ccccc1N1CCN(c2ccc(C(=O)NCCNC3CS(=O)(=O)C[C@@H]3O)cc2NC(=O)c2ccco2)CC1 (some centres unmarked) [Compound 607]
100 to 1000 |  | Cc1ccccc1N1CCN(c2ccc(C(=O)NCCCN3CCC[C@@H]3C(N)=O)cc2NC(=O)c2ccco2)CC1 [Compound 608]
100 to 1000 |  | Cc1ccccc1N1CCN(c2ccc(C(=O)NCCCN3CCC[C@H]3C(N)=O)cc2NC(=O)c2ccco2)CC1 [Compound 609]
